Source: patent US6613747B2, “6-O-carbamoyl ketolide antibacterials” (Ortho-McNeil Pharmaceutical, Inc., priority 2000, dated 2003)
In brackets after ≈: the same amount, converted by molar mass. Read-outs that look alike come from different tables or passages of the source.

Key:
Assay in all cases: MIC, microdilution broth method (NCCLS)
Format in all cases: cell-based
S. pneumoniae ATCC49619 = details: D: S. pneumoniae ATCC49619, 35° C., 16-20 hours
Protocol: (§1) Minimal inhibitory concentration (MIC) has been an indicator of in vitro antibacterial activity widely used in the art. The in vitro antimicrobial activity of the compounds was determined by the microdilution broth method following the test method from the National Committee for Clinical Laboratory Standards (NCCLS). This method is described in the NCCLS Document M7-A4, Vol. 17, No. 2, “Methods for Dilution Antimicrobial Susceptibility Test for Bacteria that Grow Aerobically—Fourth Edition”, which is incorporated herein by reference.
(§2) In this method two-fold serial dilutions of drug in cation adjusted Mueller-Hinton broth are added to wells in microdilution trays. The test organisms are prepared by adjusting the turbidity of actively growing broth cultures so that the final concentration of test organism after it is added to the wells is approximately 5×10^4 CFU/well.
(§3) Following inoculation of the microdilution trays, the trays are incubated at 35° C. for 16-20 hours and then read. […] The amount of growth in the wells containing the test compound is compared with the amount of growth in the growth-control wells (no test compound) used in each tray. As set forth in Table 1, compounds of the present invention were tested against a variety of Gram positive and Gram negative pathogenic bacteria resulting in a range of activities depending on the organism tested.

S. aureus ATCC29213 = details: B: S. aureus ATCC29213, 35° C., 16-20 hours
Protocol: as §1, §2, §3

H. influenzae ATCC49247 = details: E: H. influenzae ATCC49247, 35° C., 16-20 hours
Protocol: as §1, §2, §3

E. coli OC2605 = details: A: E. coli OC2605, 35° C., 16-20 hours
Protocol: as §1, §2, §3

E. faecalis ATCC29212 = details: C: E. faecalis ATCC29212, 35° C., 16-20 hours
Protocol: as §1, §2, §3

[1] = Staphylococcus aureus, read-out: MIC
[2] = Escherichia coli, read-out: MIC
[3] = Enterococcus faecalis, read-out: MIC

Compound | MIC (S. pneumoniae ATCC49619) | MIC (S. aureus ATCC29213) [µg/mL] | MIC (H. influenzae ATCC49247) [µg/mL] | MIC (E. coli OC2605) [µg/mL] | MIC (E. faecalis ATCC29212) [µg/mL] | MIC (S. aureus ATCC29213; [1]) [µg/mL] | MIC (H. influenzae ATCC49247; Haemophilus influenzae, read-out: MIC) [µg/mL] | MIC (E. coli OC2605; [2]) [µg/mL] | MIC (E. faecalis ATCC29212; [3]) [µg/mL] | MIC (S. pneumoniae ATCC49619; Streptococcus pneumoniae, read-out: MIC) [µg/mL]
CC[C@H]1OC(=O)[C@H](C)C(=O)[C@H](C)[C@@H](O[C@@H]2O[C@H](C)C[C@H](N(C)C)[C@H]2O)[C@](C)(OC(=O)NCC2CC(c3ccc(-c4ncccn4)cc3)C2)C[C@@H](C)C(=O)[C@H](C)[C@H]2NC(=O)O[C@@]21C (stereo partly shown) [Compound 135] | 0.5 µg/mL (≈ 0.579 µM) | 4 (≈ 4.63 µM) | >16 | >16 | 2 (≈ 2.31 µM) | – | – | – | – | –
CC[C@H]1OC(=O)[C@H](C)C(=O)[C@H](C)[C@@H](O[C@@H]2O[C@H](C)C[C@H](N(C)C)[C@H]2O)[C@](C)(OC(N)=O)C[C@@H](C)C(=O)[C@H](C)[C@H]2NC(=O)O[C@@]21C [Compound 6] | 0.12 µg/mL (≈ 0.187 µM) | 4 (≈ 6.23 µM) | – | >16 | 1 (≈ 1.56 µM) | – | – | – | – | –
CC[C@H]1OC(=O)[C@H](C)C(=O)[C@H](C)[C@@H](O[C@@H]2O[C@H](C)C[C@H](N(C)C)[C@H]2O)[C@](C)(OC(=O)NC/C=C/c2ccc3ncccc3c2)C[C@@H](C)C(=O)[C@H](C)[C@H]2NC(=O)O[C@@]21C [Compound 38] | ≦0.015 μg/mL | 0.12 (≈ 0.148 µM) | – | 8 (≈ 9.89 µM) | 0.03 (≈ 0.0371 µM) | – | – | – | – | –
CC[C@H]1OC(=O)[C@H](C)C(=O)[C@H](C)[C@@H](O[C@@H]2O[C@H](C)C[C@H](N(C)C)[C@H]2O)[C@](C)(OC(=O)NC/C=C/c2ccc(-n3ccnn3)cc2)C[C@@H](C)C(=O)[C@H](C)[C@H]2NC(=O)O[C@@]21C [Compound 33] | ≦0.015 μg/mL | 0.12 (≈ 0.145 µM) | – | 8 (≈ 9.7 µM) | 0.06 (≈ 0.0727 µM) | – | – | – | – | –
CCC1OC(=O)C(C)(F)C(=O)C(C)C(OC2OC(C)CC(N(C)C)C2O)C(C)(OC(=O)NCC=Cc2ccc(-c3cccnn3)cc2)CC(C)C(=O)C(C)C2NC(=O)OC12C (stereo not shown) [Compound 99] | – | 0.5 (≈ 0.585 µM) | 1 (≈ 1.17 µM) | 8 (≈ 9.37 µM) | 0.12 (≈ 0.141 µM) | – | – | – | – | –
CC[C@H]1OC(=O)[C@H](C)C(=O)[C@H](C)[C@@H](O[C@@H]2O[C@H](C)C[C@H](N(C)C)[C@H]2O)[C@](C)(OC(=O)NC/C=C/c2ccc3cccnc3c2)C[C@@H](C)C(=O)[C@H](C)[C@H]2NC(=O)O[C@@]21C [Compound 47] | – | 0.25 (≈ 0.309 µM) | 1 (≈ 1.24 µM) | 16 (≈ 19.8 µM) | 0.06 (≈ 0.0742 µM) | – | – | – | – | –
CC[C@H]1OC(=O)[C@H](C)C(=O)[C@H](C)[C@@H](O[C@@H]2O[C@H](C)C[C@H](N(C)C)[C@H]2O)[C@](C)(OC(=O)NC/C=C/c2ccnc3ccccc23)C[C@@H](C)C(=O)[C@H](C)[C@H]2NC(=O)O[C@@]21C [Compound 34] | ≦0.015 μg/mL | 0.12 (≈ 0.148 µM) | – | 8 (≈ 9.89 µM) | 0.06 (≈ 0.0742 µM) | – | – | – | – | –
CC[C@H]1OC(=O)[C@H](C)[C@@H](O)[C@H](C)[C@@H](O[C@@H]2O[C@H](C)C[C@H](N(C)C)[C@H]2O)[C@](C)(OC(=O)NC/C=C/c2ccc(-c3ncccn3)cc2)C[C@@H](C)C(=O)[C@H](C)[C@H]2NC(=O)O[C@@]21C [Compound 95] | – | – | – | – | – | 1 (≈ 1.19 µM) | 2 (≈ 2.39 µM) | > 16 | 0.25 (≈ 0.298 µM) | –
CC[C@H]1OC(=O)[C@H](C)C(=O)[C@H](C)[C@@H](O[C@@H]2O[C@H](C)C[C@H](N(C)C)[C@H]2O)[C@](C)(OC(=O)NC2CC(c3ccc(-c4ncccn4)cc3)C2)C[C@@H](C)C(=O)[C@H](C)[C@H]2NC(=O)O[C@@]21C (stereo partly shown) [Compound 136] | 2 µg/mL (≈ 2.35 µM) | – | >16 | >16 | 4 (≈ 4.71 µM) | – | – | – | – | –
CC[C@H]1OC(=O)[C@H](C)C(=O)[C@H](C)[C@@H](O[C@@H]2O[C@H](C)C[C@H](N(C)C)[C@H]2O)[C@](C)(OC(=O)NCc2cccc(-c3ccccn3)c2)C[C@@H](C)C(=O)[C@H](C)[C@H]2NC(=O)O[C@@]21C [Compound 37] | 0.03 µg/mL (≈ 0.0371 µM) | 0.5 (≈ 0.618 µM) | – | 16 (≈ 19.8 µM) | 0.12 (≈ 0.148 µM) | – | – | – | – | –
CCC1OC(=O)C(C)(F)C(=O)C(C)C(OC2OC(C)CC(N(C)C)C2O)C(C)(OC(=O)NCC=Cc2ccc(-c3ccncn3)cc2)CC(C)C(=O)C(C)C2NC(=O)OC12C (stereo not shown) [Compound 100] | – | 0.5 (≈ 0.585 µM) | 2 (≈ 2.34 µM) | 16 (≈ 18.7 µM) | 0.12 (≈ 0.141 µM) | – | – | – | – | –
CC[C@H]1OC(=O)[C@H](C)C(=O)[C@H](C)[C@@H](O[C@@H]2O[C@H](C)C[C@H](N(C)C)[C@H]2O)[C@](C)(OC(=O)NC/C=C/c2cccc3cccnc23)C[C@@H](C)C(=O)[C@H](C)[C@H]2NC(=O)O[C@@]21C [Compound 46] | – | 0.25 (≈ 0.309 µM) | 2 (≈ 2.47 µM) | 16 (≈ 19.8 µM) | 0.06 (≈ 0.0742 µM) | – | – | – | – | –
CC[C@H]1OC(=O)[C@H](C)C(=O)[C@H](C)[C@@H](O[C@@H]2O[C@H](C)C[C@H](N(C)C)[C@H]2O)[C@](C)(OC(=O)NCc2ccccc2)C[C@@H](C)C(=O)[C@H](C)[C@H]2NC(=O)O[C@@]21C [Compound 1] | 0.03 µg/mL (≈ 0.041 µM) | 4 (≈ 5.47 µM) | – | >16 | 0.12 (≈ 0.164 µM) | – | – | – | – | –
CC[C@H]1OC(=O)[C@H](C)C(=O)[C@H](C)[C@@H](O[C@@H]2O[C@H](C)C[C@H](N(C)C)[C@H]2O)[C@](C)(OC(=O)NC/C=C/c2cccc(-n3cccn3)n2)C[C@@H](C)C(=O)[C@H](C)[C@H]2NC(=O)O[C@@]21C [Compound 48] | – | 0.5 (≈ 0.606 µM) | 4 (≈ 4.85 µM) | >16 | 0.12 (≈ 0.145 µM) | – | – | – | – | –
CC[C@H]1OC(=O)[C@H](C)C(=O)[C@H](C)[C@@H](O[C@@H]2O[C@H](C)C[C@H](N(C)C)[C@H]2O)[C@](C)(OC(=O)NC/C=C/c2ccc(-c3ncccn3)cc2)C[C@@H](C)C(=O)[C@H](C)[C@H]2NC(=O)O[C@@]21C [Compound 32, Carbamic acid, [(2E)-3-[4-(2-pyrimidinyl)phenyl]-2-propenyl]-, (3aS,4R,7R,9R,10R,11R,13R,15R,15aR)-4-ethyltetradecahydro-3a,7,9,11,13,15-hexamethyl-2,6,8,14-tetraoxo-10-[[3,4,6-trideoxy-3-(dimethylamino)-β-D-xylo-hexopyranosyl]oxy]-2H-oxacyclotetradecino[4,3-d]oxazol-11-yl ester] | – | – | – | – | – | 0.12 (≈ 0.144 µM) | – | 16 (≈ 19.1 µM) | 0.06 (≈ 0.0718 µM) | 0.06 (≈ 0.0718 µM)
CC[C@H]1OC(=O)[C@H](C)C(=O)[C@H](C)[C@@H](O[C@@H]2O[C@H](C)C[C@H](N(C)C)[C@H]2O)[C@](C)(OC(=O)NC/C=C/c2cccc(-c3ccccn3)c2)C[C@@H](C)C(=O)[C@H](C)[C@H]2NC(=O)O[C@@]21C [Compound 36] | ≦0.015 μg/mL | 0.12 (≈ 0.144 µM) | – | 8 (≈ 9.58 µM) | 0.03 (≈ 0.0359 µM) | – | – | – | – | –
CC[C@H]1OC(=O)[C@H](C)C(=O)[C@H](C)[C@@H](O[C@@H]2O[C@H](C)C[C@H](N(C)C)[C@H]2O)[C@](C)(OC(=O)NCc2ccc(Br)cc2)C[C@@H](C)C(=O)[C@H](C)[C@H]2NC(=O)O[C@@]21C [Compound 5] | 0.03 µg/mL (≈ 0.037 µM) | 0.5 (≈ 0.617 µM) | – | >16 | 0.25 (≈ 0.308 µM) | – | – | – | – | –
CC[C@H]1OC(=O)[C@H](C)C(=O)[C@H](C)[C@@H](O[C@@H]2O[C@H](C)C[C@H](N(C)C)[C@H]2O)[C@](C)(OC(=O)NC/C=C/c2ccc(-n3cnnc3)cc2)C[C@@H](C)C(=O)[C@H](C)[C@H]2NC(=O)O[C@@]21C [Compound 40] | 0.12 µg/mL (≈ 0.145 µM) | 1 (≈ 1.21 µM) | – | 16 (≈ 19.4 µM) | 0.5 (≈ 0.606 µM) | – | – | – | – | –
